Reference: patent publication US9006191B2, “Silencing of polo-like kinase expression using interfering RNA” (Protiva Biotherapeutics, Inc., priority 2007, dated 2015)
Values joined by “and” are separate entries in the source; they are usually repeats but may differ in a detail not shown here. Equal entries are not always repeated. “Also recorded” adds a separate entry of the source.

Key:
human PLK-1 mRNA [1] = assay: PLK-1 mRNA in Hep3B tumors (QuantiGene bDNA assay); type: in vivo; details: hepatic Hep3B tumors, single 2 mg/kg IV, 24 h
Description: The objectives of this study were as follows: • 1. To determine the level of mRNA silencing in established Hep3B liver tumors following a single IV administration of PLK1424 SNALP. • 2. To confirm the mechanism of mRNA silencing by detecting specific RNA cleavage products using RACE-PCR. • 3. To confirm induction of tumor cell apoptosis by histopathology.
A comparison of the effect of PEG-cDMA and PEG-cDSA 1:57 SNALPs on PLK-1 mRNA silencing was performed using established intrahepatic Hep3B tumors in scid/beige mice. A single 2 mg/kg dose of PLK-1 SNALP containing either PEG-cDMA or PEG-cDSA was administered intravenously. Liver/tumor samples were collected at 24 and 96 hours after SNALP treatment. Control=2 mg/kg Luc-cDMA SNALP at 24 hours.
Measurement of human PLK-1 and GAPDH mRNA in tumor tissues. […] Human PLK-1 and GAPDH mRNA were measured in tumor lystes by the QuantiGene bDNA assay (Panomics) as per the manufacturer's instructions (Quantigene 1.0 Manual). […] Data were expressed as mean PLK-1:GAPDH ratio+/−SD of individual animals. Tumor burden was assessed by homogenizing the complete liver from tumor bearing mice and measuring the total hGAPDH signal (RLU's) within the liver. Values were expressed as hGAPDH RLU/mg total liver.
Subcutaneous tumor models. […] The extent of PLK-1 mRNA knockdown was determined in the Hep3B tumors about 24 hours after SNALP administration.

human PLK-1 mRNA [2] = assay: 5′ RACE-PCR in HT29 cells; type: cell-based; details: 10 nM, 24 h
Description: (A) HT29 cells were treated with 10 nM SNALP-formulated PLK1424, Luc siRNA or PBS. RNA was isolated 24 hours after transfection and assayed for the specific PLK-1 mRNA cleavage product by 5′-RACE-PCR. (B) Neuro2a cells were treated with SNALP-formulated KSP2263, PLK773 siRNA or PBS. RNA was isolated 24 hours after transfection and assayed for the specific mouse KSP mRNA cleavage product by 5′-RACE-PCR.
The detection of specific RNA cleavage products generated by RISC-mediated hydrolysis of target mRNA is the definitive marker confirming RNAi as the mechanism of gene silencing (39, 40). Activated RISC cleaves target mRNA precisely between the nucleotides complementary to positions 10 and 11 of the siRNA AS strand generating an mRNA cleavage product that is unique to the siRNA sequence. This can be detected in cells using an appropriately designed 5′-rapid amplification of cDNA ends-PCR method (RACE-PCR). We developed RACE-PCR assays to detect the PLK1424-specific cleavage product of human PLK-1 mRNA and the KSP2263-specific cleavage product of mouse KSP mRNA.
5′ RNA Ligase Mediated Rapid Amplification of cDNA ends (5′ RLM RACE).

[3] = test system: anti-PEG-lipid IgG and IgM antibodies; assay: In vivo PEG-lipid antibody induction assay; design: species or system mouse; details: CD1 ICR mice, 1:57 SNALP IV at Days 0, 7, 14; plasma Days 7, 14, 21
Description: In vivo PEG-lipid antibody induction assays. Animal studies were performed to test for the induction of an antibody response to 2′OMe-modified PLK1424 siRNAs that were encapsulated in a 1:57 SNALP formulation containing the lipid conjugate PEG-cDMA. Six-week-old female CD1 ICR mice were used in this study. […] Mice were then sacrificed on Day 21. The tolerability of the treatment regime was monitored by animal appearance, behavior, and body weight. Anti-PEG-lipid IgG and IgM antibodies in plasma at Days 7, 14, and 21 were measured by ELISA.

HT29 cells = assay: HT29 cell viability assay (CellTiter-Blue); type: cell-based, human; details: for anti-proliferative activity in screen of PLK-1 siRNA panel: HT29 cells, 1, 5, 25 nM, 72 h; for cell viability / killing of human tumor cells: HT29 cells, SNALP-formulated siRNA at a range of siRNA concentrations, viability at 72 h relative to PBS
Description: Various PLK-1 siRNAs were formulated as SNALP (“2:40” SNALP formulation: 2% PEG-cDMA; 40% DLinDMA; 10% DSPC; and 48% cholesterol) and evaluated for their inhibitory effects on cell growth in vitro. HT29 (human colon adenocarcinoma) or Neuro2A (mouse neuroblastoma) cells were treated with various PLK-1 SNALP at a range of siRNA concentrations and their effect on cell viability was evaluated. Viability of cell cultures is expressed as % viability relative to PBS treated controls.
Additional PLK-1 siRNA molecules were formulated as SNALP (“2:40” SNALP formulation: 2% PEG-cDMA; 40% DLinDMA; 10% DSPC; and 48% cholesterol) and evaluated for their inhibitory effects on cell growth in vitro. HT29 or Neuro2A cells were plated in triplicate at 5000 cells/well and 2500 cells/well, respectively. PLK-1 SNALP dosages were as follows: 25 nM; 5 nM; and 1 nM. Cell viability analysis was performed at 72 hours following transfection. SNALP containing a non-targeting (GFP) siRNA were used as a negative control. […]
PLK-1 siRNA molecules containing 2′-O-methyl (2′OMe) nucleotides at selective positions within the double-stranded region of the siRNA duplex were formulated as SNALP (“2:40” SNALP formulation: 2% PEG-cDMA; 40% DLinDMA; 10% DSPC; and 48% cholesterol) and evaluated for their inhibitory effects on cell growth in vitro. HT29 cells were plated in triplicate at 5000 cells/well. Cell viability analysis was performed at 72 hours following transfection with a range of PLK-1 SNALP dosages. SNALP containing a non-targeting (GFP) siRNA were used as a negative control.
Cell viability assays. […] Cell viability analysis was performed at 72 hours following transfection with a range of PLK-1 SNALP dosages.

[4] = SNALP particle size and polydispersity; type: physicochemical
Hep3B cells = details: SNALP-formulated siRNA, 72 h
Description: Cell Viability Assay: Cell viability of in vitro cell cultures was assessed using the commercial reagent CellTiter-Blue® (Promega Corp.; Madison, Wis.), a resazurin dye that is reduced by metabolically active cells to the fluorogenic product resorufin. Various cancer cell lines were cultured in vitro using standard tissue culture techniques. 48-72 hours after treatment with siRNA formulations and/or chemotherapy drugs, the CellTiter-Blue® reagent was added to the culture to quantify the metabolic activity of the cells, which is a measure of cell viability.
Cell Cultures. The cell lines Hep3B, HepG2, HT29, LS174T, and Neuro2a cells were obtained from the American Type Culture Collection (ATCC; Manassas, Va.) and cultured in the recommended basal media with 10% heat inactivated FBS and 1% penicillin-streptomycin. […] For in vitro siRNA activity assays, cell lines were cultured in 96 well plates in the presence of SNALP formulated siRNA. Cell viability was assessed after 72 h using the resazurin dye CellTiter Blue (Promega Corp).

Substance | tumor hPLK-1 mRNA, % of levels in PBS-treated mice (human PLK-1 mRNA [1]) | PLK-1 mRNA cleavage product by 5′ RACE-PCR (human PLK-1 mRNA [2]) | IgG / IgM antibody response against PEG-lipid (PEG-cDMA) [3] | anti-proliferative activity in screen of PLK-1 siRNA panel (HT29 cells) | cell viability / killing of human tumor cells (HT29 cells) | mean SNALP particle size [4] | cell viability / anti-proliferative activity (Hep3B cells)
PLK1424-2/A: 2′OMe-modified PLK1424 duplex, SEQ ID NO:214/215 (same SEQ IDs as PLK1424 1/3 of Table 11) (chain 1 AGANCACCCNCCUNAAANAUU; chain 2 UAUUUAANGAGGGUGANCUUU; siRNA; 2'-O-methyl modifications at selected positions, key for n not given here) | 45% | generated the predicted 476 bp 5′ RACE-PCR product | substantially less immunogenic than SNALP containing the corresponding unmodified PLK1424 siRNA sequence |  |  |  | 
PLK1424: siRNA to human PLK-1, SEQ ID NO:1/2 (UU overhang form 211/212) (chain 1 AGAUCACCCUCCUUAAAUA; chain 2 UAUUUAAGGAGGGUGAUCU; further chemistry not given here) |  |  |  | most potent human siRNA | highly potent at killing human tumor cells; also recorded: most potent effects; also recorded: inhibiting cell growth; also recorded: dose-dependent decrease in cell viability | 83 nm and 72 nm | potent activity
PLK773: siRNA to human PLK-1, SEQ ID NO:3/4 (UU overhang form 218/219) (chain 1 AGACCUACCUCCGGAUCAA; chain 2 UUGAUCCGGAGGUAGGUCU; RNA, backbone not given here) |  |  |  | most potent mouse, rat, and human cross-reactive siRNA | effective at killing human tumor cells; also recorded: inhibiting cell growth; also recorded: dose-dependent decrease in cell viability |  | 
